In patent US12364718B2, “Microbial compositions to increase the production of PCA from polyphenols” (priority 2020, dated 2025):

Legend:
[1] = test system: B. subtilis 1579; test: National Antimicrobial Resistance Monitoring System (NARMS) panel screening, MIC in […] 96-well plate; assay type: cell-based, Bacillus subtilis; set-up: Minimum Inhibitory Concentrations (MIC), 1579a / Minimum Inhibitory Concentrations (MIC), 1579b: unit not given here; settings: for MIC interpretation (susceptible/intermediate/resistant), 1579a / Minimum Inhibitory Concentrations (MIC), 1579a: duplicate a; for MIC interpretation (susceptible/intermediate/resistant), 1579a / MIC interpretation (susceptible/intermediate/resistant), 1579b: CLSI M45 Bacillus spp. or NARMS Enterococcus breakpoints; for MIC interpretation (susceptible/intermediate/resistant), 1579b / Minimum Inhibitory Concentrations (MIC), 1579b: duplicate b; for Minimum Inhibitory Concentrations (MIC), 1579a / Minimum Inhibitory Concentrations (MIC), 1579b: Mueller-Hinton broth, 37° C., read at 18 hours
Protocol: Methods. […] A sterile swab was used to take a portion of the pellet and resuspended in sterile ddH2O tubes; a 0.5 McFarland standard was used to determine the optimal dilution. 15 microliters of the ddH2O was transferred into the 5 mL tubes of Mueller-Hinton broth and the mixture was vortexed and poured into a sterile boat. A p200 multi-channel pipette was used to transfer 50 microliters into each well of the […] 96-well microtiter plate (CMV3AGPF) plate (FIG. 3) and sealed. The plates were incubated at 37° C. overnight. The plates were removed at 18 hours and each well was given a result of either positive or negative depending on if there was any growth in the well.

[2] = test system: Bovine Aortic Endothelial Cells (BAEC); test: Inflammatory marker gene expression in LPS stimulated bovine endothelial cells (qPCR); assay type: cell-based; set-up: Cox-2 gene expression: dose or concentration left out as unconfirmed; settings: LPS stimulation, 6 hours, qPCR vs GAPDH
Protocol: To determine potential mode of action of PCA, in vitro studies were performed using Bovine Aortic Endothelial Cells (BAEC). Stress was induced in mammalian endothelial cells using a lipopolysaccharide (LPS) model, which causes an inflammatory response through inflammatory cytokine, NO and prostaglandin release. After 6 hours, cells were lysed and cellular RNA was recovered using Direct-zol RNA MiniPrep Plus kit (Zymo Research) following the manufacturer's instructions. RNA was converted to cDNA using the QuantiNova Reverse Transcription Kit (Qiagen). Gene expression was then quantified using the QuantiTect SYBR Green PCR kit with primers specific for inflammatory markers. Inducible nitric oxide expression was screened using primers iNOSF ([…], SEQ ID NO: 7) and iNOSR ([…], SEQ ID NO: 8), Cyclo-oxygenase 2 primers, COX2F ([…], SEQ ID NO: 9) and COX2R ([…], SEQ ID NO: 10), and Interleukin-6 primers IL6F ([…], SEQ ID NO: 11) and IL6R ([…], SEQ ID NO: 12) compared against the house keeping gene GAPDH, primers GAPDH-F ([…], SEQ ID NO: 13) and GAPDH-R ([…], SEQ ID NO: 14). Quantitative PCR reactions were set up in 20 μl volumes as per the manufacturer's recommendations (Qiagen). Thermocycler conditions started with a 15 min denaturation at 95° C. followed by 40 cycles of denaturation at 95° C. for 15 seconds, annealing at 60° C. for 30 seconds and extension at 60° C. for 30 seconds before a melt curve.

Compound	MIC interpretation (susceptible/intermediate/resistant), 1579a [1]	MIC interpretation (susceptible/intermediate/resistant), 1579b [1]	IL-6 expression ([2]; 1 g/ml and 10 µg/ml PCA)	iNOS gene expression ([2]; 1 g/ml and 10 µg/ml PCA)	Cox-2 gene expression ([2]; PCA)	Minimum Inhibitory Concentrations (MIC), 1579a [1]	Minimum Inhibitory Concentrations (MIC), 1579b [1]
CCCCCCCCCC(=O)N[C@@H](Cc1c[nH]c2ccccc12)C(=O)N[C@H](CC(N)=O)C(=O)N[C@@H](CC(=O)O)C(=O)N[C@@H]1C(=O)NCC(=O)N[C@@H](CCCN)C(=O)N[C@@H](CC(=O)O)C(=O)N[C@H](C)C(=O)N[C@@H](CC(=O)O)C(=O)NCC(=O)N[C@H](CO)C(=O)N[C@@H]([C@H](C)CC(=O)O)C(=O)N[C@@H](CC(=O)c2ccccc2N)C(=O)O[C@@H]1C [Daptomycin]	S	S					
O=C(O)c1ccc(O)c(O)c1 [PCA, protocatechuic acid]			dose dependently decreased	decreased	decreased		
CN(C)c1cc(NC(=O)CNC(C)(C)C)c(O)c2c1C[C@H]1C[C@H]3[C@H](N(C)C)C(O)=C(C(N)=O)C(=O)[C@@]3(O)C(O)=C1C2=O [Tigercycline]	S	S					
CN[C@H](CC(C)C)C(=O)N[C@H]1C(=O)N[C@@H](CC(N)=O)C(=O)N[C@H]2C(=O)N[C@H]3C(=O)N[C@H](C(=O)N[C@H](C(=O)O)c4cc(O)cc(O)c4-c4cc3ccc4O)[C@H](O)c3ccc(c(Cl)c3)Oc3cc2cc(c3O[C@@H]2O[C@H](CO)[C@@H](O)[C@H](O)[C@H]2O[C@H]2C[C@](C)(N)[C@H](O)[C@H](C)O2)Oc2ccc(cc2Cl)[C@H]1O [Vancomycin]	S	S					
Gentamycin	S	S				128	128
Penicillin	S	S				1	0.5
Quinupristin/dalfopristin						4	32
